These are literature values, as cited in patent publication US20220288212A1, “FULLERENE P[…] AND METHODS” (Sinapu LLC, priority 2021, published 2022).

The structures appear in SMILES notation.

For data set [1] the following is noted: room temperature.
For data set [2] the following is noted: minimum of from 2.5 to 3 grams of EGCG ingested per day.

On to `O=C(O[C@@H]1Cc2c(O)cc(O)cc2O[C@@H]1c1cc(O)c(O)c(O)c1)c1cc(O)c(O)c(O)c1` [EGCG, epigallocatechin gallate], for which the “maximum solubility in water” value in data set [1] is given as 92 grams per liter. Moreover, the blood serum concentration in data set [2] is 100 to 1000 nM.
